Measurements: patent EP2326172B1, “ANTIFUNGAL AGENTS” (Scynexis, Inc., priority 2008, dated 2010)

Each compound was assayed against T1, glucan synthase (GS) (Candida albicans, UniProt O13428) (assay: Glucan synthase inhibition (polymerization assay, 96-well, 3H-UDPG incorporation)). Details: not given.
T1 construct: Extraction of GS activity from membranes was performed at a protein concentration of 5 mg/mL in extraction buffer; endogenous in cells; host or cells: Candida albicans MY1055 (membrane fraction, detergent extract, product entrapment)
T1 sequence (O13428 1-1897): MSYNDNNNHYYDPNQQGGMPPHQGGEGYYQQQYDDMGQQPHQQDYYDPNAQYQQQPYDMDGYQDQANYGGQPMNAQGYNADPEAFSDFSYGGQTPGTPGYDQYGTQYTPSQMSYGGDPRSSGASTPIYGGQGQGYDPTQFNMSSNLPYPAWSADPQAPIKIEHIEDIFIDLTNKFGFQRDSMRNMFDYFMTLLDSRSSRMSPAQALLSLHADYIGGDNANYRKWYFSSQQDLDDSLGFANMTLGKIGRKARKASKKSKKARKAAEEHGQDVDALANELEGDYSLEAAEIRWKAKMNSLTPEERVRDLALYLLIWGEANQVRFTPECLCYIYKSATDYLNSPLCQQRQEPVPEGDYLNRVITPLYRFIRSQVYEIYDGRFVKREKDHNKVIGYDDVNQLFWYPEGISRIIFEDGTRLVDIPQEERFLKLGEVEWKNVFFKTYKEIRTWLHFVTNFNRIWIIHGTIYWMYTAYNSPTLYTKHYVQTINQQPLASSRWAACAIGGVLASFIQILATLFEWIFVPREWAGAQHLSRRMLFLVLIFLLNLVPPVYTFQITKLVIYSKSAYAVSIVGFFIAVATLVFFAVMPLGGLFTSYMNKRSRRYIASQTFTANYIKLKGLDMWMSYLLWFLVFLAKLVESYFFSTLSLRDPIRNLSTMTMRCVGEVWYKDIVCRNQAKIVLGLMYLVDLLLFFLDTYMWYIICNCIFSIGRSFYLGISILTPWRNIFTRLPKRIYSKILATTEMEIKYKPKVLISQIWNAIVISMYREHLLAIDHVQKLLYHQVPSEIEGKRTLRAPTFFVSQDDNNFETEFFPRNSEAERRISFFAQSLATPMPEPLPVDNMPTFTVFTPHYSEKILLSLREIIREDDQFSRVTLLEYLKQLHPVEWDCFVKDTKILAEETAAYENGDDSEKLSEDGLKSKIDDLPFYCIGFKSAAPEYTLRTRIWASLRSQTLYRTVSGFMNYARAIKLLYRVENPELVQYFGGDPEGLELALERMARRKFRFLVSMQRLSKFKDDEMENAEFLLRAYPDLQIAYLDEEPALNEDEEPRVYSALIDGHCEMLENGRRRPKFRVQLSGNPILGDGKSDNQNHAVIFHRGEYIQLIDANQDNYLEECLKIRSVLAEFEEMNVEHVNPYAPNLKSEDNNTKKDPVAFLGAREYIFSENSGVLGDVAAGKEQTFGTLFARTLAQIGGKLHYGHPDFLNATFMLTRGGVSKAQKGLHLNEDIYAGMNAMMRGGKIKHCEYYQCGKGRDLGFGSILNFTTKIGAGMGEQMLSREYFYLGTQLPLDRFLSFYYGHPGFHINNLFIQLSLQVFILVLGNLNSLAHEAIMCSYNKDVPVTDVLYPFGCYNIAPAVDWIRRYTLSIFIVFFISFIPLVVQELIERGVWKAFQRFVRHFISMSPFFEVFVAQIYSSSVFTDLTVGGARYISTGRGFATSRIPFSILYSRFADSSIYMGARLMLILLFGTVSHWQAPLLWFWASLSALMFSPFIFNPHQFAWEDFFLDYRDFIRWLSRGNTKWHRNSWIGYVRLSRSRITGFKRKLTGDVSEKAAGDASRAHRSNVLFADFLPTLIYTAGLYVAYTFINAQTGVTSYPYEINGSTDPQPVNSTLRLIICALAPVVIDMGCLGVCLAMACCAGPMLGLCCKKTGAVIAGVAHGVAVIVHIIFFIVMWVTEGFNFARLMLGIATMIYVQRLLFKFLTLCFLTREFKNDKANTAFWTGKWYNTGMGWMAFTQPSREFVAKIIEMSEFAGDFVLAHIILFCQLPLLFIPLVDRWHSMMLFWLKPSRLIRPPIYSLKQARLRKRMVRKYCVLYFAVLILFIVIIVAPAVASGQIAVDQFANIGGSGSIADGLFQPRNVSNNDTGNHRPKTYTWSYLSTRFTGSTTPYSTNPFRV
T1 sequence (O42825 1-195 partner limits assumed): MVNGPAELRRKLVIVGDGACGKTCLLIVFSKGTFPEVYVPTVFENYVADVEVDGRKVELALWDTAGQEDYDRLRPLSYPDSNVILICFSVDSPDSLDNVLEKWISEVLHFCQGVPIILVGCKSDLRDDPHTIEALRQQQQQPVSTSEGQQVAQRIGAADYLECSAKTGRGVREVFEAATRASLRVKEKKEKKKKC
Format: biochemical
Procedure: The in vitro evaluation of glucan synthase inhibitory activity of compounds was measured in a polymerization assay in 96-well format. Each well contained 100 µL of ^3H-UDPG at 0.5 mM (6000 to 8000 dpm/nmol), 50 mM HEPES pH 7.5 (Sigma), 10% w/v glycerol (Sigma), 1.5 mg/mL bovine serum albumin (Sigma A 9647. Lot 44H0190), 25 mM KF (Fisher), 1 mM EDTA (Gibco ULTRAPURE), 25 µM GTP-γ-S, enzyme sufficient to give 3 to 6 nmoles incorporation during the 60 min incubation at 22°C, and test compound added from wells in 3-fold serial dilutions in 100% DMSO (1 µL/well). The reaction was stopped by the addition of 100 µL of 20% trichloroacetic acid. Plates were chilled for a minimum of 10 min, and precipitated glucan collected by filtration on GF/C plates (Packard UNIFILTER®-96), washed with 5 cycles of water (about 1 mL/well each cycle) using a Packard FILTERMATE HARVESTER. 40 µL/well scintillation fluid (Packard ULTIMA GOLD TM-XR) was added and the sealed plates counted in a WALLAC BETA counter in top-counting mode at an efficiency of approximately 40%.
Stock solutions were stored at 10 mg/mL in DMSO at -20°C. For each new enzyme preparation, the initial titration performed started at 1 mg/mL, which was prepared by making a 10-fold dilution in DMSO (5 µL to 50 µL). 40 µL of this stock was placed in column 12 of a round-bottomed 96-well microtiter plate. 40 µL DMSO was added to columns 1 to 11 in the same row and ten 3-fold serial dilutions performed, by transferring 20 µL from column 12 to column 11 etc., with 4 mixings before each transfer. No test compound was transferred to from column 2 to column 1. Duplicate aliquots of 1 µL of all 12 dilutions were then transferred to the side walls of a 96-well Bioblock 1.1 mL plate (Fisher brand) to create two rows.
Graphs of the primary data were created in PRISM software (the average of two determinations) using PRISM's curve fitting program (sigmoidal dose response non-linear regression). The amount of compound required to inhibit glucan synthase activity by 50% in this assay (IC50 - ng/mL) was calculated.
Routine analysis was performed with glucan synthase (GS) prepared from Candida albicans MY1055 by the following procedure: MY1055 was grown in 10 liters YPD medium (10 g yeast extract, 20 g tryptone, 20 g glucose per liter) with vigorous shaking at 30°C, to early stationary phase. Cells were harvested by centrifugation, the pellet was washed and frozen at -70°C until breakage. Thawed pellets were shaken with an equal volume of breakage buffer (50 mM HEPES pH 7.4, 10% glycerol, 1 mM EDTA, 1 mM PMSF, 1mM DTT) and 4 times their weight of 0.5 mm acid washed glass beads for 2 hours at 4°C. Extent of breakage was assessed visually at 40x magnification. After low speed centrifugation to remove cell debris, the supernatant was centrifuged at 100,000 x g for 60 min. to separate membranes plus ribosomes from cytoplasmic components. Membranes were further washed two additional times with breakage buffer using the same centrifugation conditions and finally suspended in breakage buffer at 25 to 30 mg/mL protein (Biorad) for storage at -70°C. Extraction of GS activity from membranes was performed at a protein concentration of 5 mg/mL in extraction buffer (50mM NaPO4 pH 7.5, 0.1 M KCl, 0.1M Na citrate, 20% glycerol, 5 µM GTP-γ-S, 1mM DTT, 1 mM PMSF, 3 µg/mL pepstatin) plus 0.25% W1 by gentle mixing at 4°C for 60 min, followed by centrifugation at 100,000 x g for 60 min. After centrifugation, clear supernatant was removed from a pellet consisting of a hard layer usually with small amounts of gelatinous unextracted membranes above it.
Trapping was initiated immediately by 5-fold dilution in trapping buffer (50 mM HEPES pH 7.5, 10 mM KF, 1 mM EDTA, 2 mg/mL BSA) plus 2.5 mM UDPG and 10µM GTP-γ-S. After incubation at 25°C for 60 to 90 minutes, glucan was harvested by low speed centrifugation (3,000 x g, 10 min). […]

Row | SMILES | IC50 [nM]
1 | CC(C)[C@@H](C)[C@@]1(C)CC[C@]2(C)[C@H]3CC[C@@H]4[C@@]5(COC[C@@]4(C)[C@@H](OC[C@](C)(N)C(C)(C)C)[C@H](n4ncnc4-c4ccncc4)C5)C3=CC[C@@]2(C)[C@@H]1C(=O)O [Example 173, (1S,4aR,6aS,7R,8R,10aR,10bR,12aR,14R,15R)-15-[[(2R)-2-amino-2,3,3-trimethylbutyl]oxy]-8-[(1R)-1,2-dimethylpropyl]-14-[5-(4-pyridinyl)-1H-1,2,4-triazol-1-yl]-1,6,6a,7,8,9,10,10a,10b,11,12,12a-dodecahydro-1,6a,8,10a-tetramethyl-4H-1,4a-propano-2H-phenanthro[1,2-c]pyran-7-carboxylic acid] | 0.822

Same assay, conditions: glucan synthase prepared from Candida albicans MY1055; 60 min incubation at 22°C; read-out: Candida Albicans GS IC50 (ng/mL) (converted)

Row | SMILES | IC50 [nM]
2 | CCC(N)(CC)CO[C@H]1[C@H](n2ncnc2C(=O)NC)C[C@@]23COC[C@]1(C)[C@@H]2CC[C@H]1C3=CC[C@@]2(C)[C@H](C(=O)O)[C@@](C)([C@H](C)C(C)C)CC[C@]12C [Example 101, (1S,4aR,6aS,7R,8R,10aR,10bR,12aR,14R,15R)-15-(2-amino-2-ethylbutoxy)-8-[(1R)-1,2-dimethylpropyl]-14-[5-[(methylamino)carbonyl]-1H-1,2,4-triazol-1-yl]-1,6,6a,7,8,9,10,10a,10b,11,12,12a-dodecahydro-1,6a,8,10a-tetramethyl-4H-1,4a-propano-2H-phenanthro[1,2-c]pyran-7-carboxylic acid] | 18.7
3 | CNC1(CO[C@H]2[C@H](n3ncnc3C(N)=O)C[C@@]34COC[C@]2(C)[C@@H]3CC[C@H]2C4=CC[C@@]3(C)[C@H](C(=O)O)[C@@](C)([C@H](C)C(C)C)CC[C@]23C)CCOCC1 [Example 46, (1S,4aR,6aS,7R,8R,10aR,10bR,12aR,14R,15R)-14-[5-(aminocarbonyl)-1H-1,2,4-triazol-1-yl]-8-[(1R)-1,2-dimethylpropyl]-15-[[tetrahydro-4-(methylamino)-2H-pyran-4-yl]methoxy]-1,6,6a,7,8,9,10,10a,10b,11,12,12a-dodecahydro-1,6a,8,10a-tetramethyl-4H-1,4a-propano-2H-phenanthro[1,2-c]pyran-7-carboxylic acid] | 8.45
4 | CC(C)NC(=O)c1ncnn1[C@@H]1C[C@@]23COC[C@](C)([C@@H]2CC[C@H]2C3=CC[C@@]3(C)[C@H](C(=O)O)[C@@](C)([C@H](C)C(C)C)CC[C@]23C)[C@H]1OC[C@](C)(N)C(C)(C)C [Example 93, (1S,4aR,6aS,7R,8R,10aR,10bR,12aR,14R,15R)-15-[[(2R)-2-amino-2,3,3-trimethylbutyl]oxy]-8-[(1R)-1,2-dimethylpropyl]-14-[5-[[(1-methylethyl)amino]carbonyl]-1H-1,2,4-triazol-1-yl]-1,6,6a,7,8,9,10,10a,10b,11,12,12a-dodecahydro-1,6a,8,10a-tetramethyl-4H-1,4a-propano-2H-phenanthro[1,2-c]pyran-7-carboxylic acid] | 20.3
5 | CN[C@@](C)(CO[C@H]1[C@H](n2ncnc2-c2ccncc2)C[C@@]23COC[C@]1(C)[C@@H]2CC[C@H]1C3=CC[C@@]2(C)[C@H](C(=O)O)[C@@](C)([C@H](C)C(C)C)CC[C@]12C)C(C)(C)C [Example 174, (1S,4aR,6aS,7R,8R,10aR,10bR,12aR,14R,15R)-8-[(1R)-1,2-dimethylpropyl]-14-[5-(4-pyridinyl)-1H-1,2,4-triazol-1-yl]-15-[[(2R)-2,3,3-trimethyl-2-(methylamino)butyl]oxy]-1,6,6a,7,8,9,10,10a,10b,11,12,12a-dodecahydro-1,6a,8,10a-tetramethyl-4H-1,4a-propano-2H-phenanthro[1,2-c]pyran-7-carboxylic acid] | 2.69
6 | CCN[C@@](C)(CO[C@H]1[C@H](n2ncnc2C(N)=O)C[C@@]23COC[C@]1(C)[C@@H]2CC[C@H]1C3=CC[C@@]2(C)[C@H](C(=O)O)[C@@](C)([C@H](C)C(C)C)CC[C@]12C)C(C)C [Example 43, (1S,4aR,6aS,7R,8R,10aR,10bR,12aR,14R,15R)-14-[5-(aminocarbonyl)-1H-1,2,4-triazol-1-yl]-8-[(1R)-1,2-dimethylpropyl]-15-[[(2R)-2-(ethylamino)-2,3-dimethylbutyl]oxy]-1,6,6a,7,8,9,10,10a,10b,11,12,12a-dodecahydro-1,6a,8,10a-tetramethyl-4H-1,4a-propano-2H-phenanthro[1,2-c]pyran-7-carboxylic acid] | 15.5
